One molecule from patent publication US20220378763A1, “COMPOUND FOR TREATMENT OF ACUTE INFLAMMATION IN THE MYOCARDIUM” (CALPROTECT AB, priority 2019, published 2022) can be followed below.

The test system of assay [1] is α-MHC-mCherry mice with MI. Nature of the assay: Efferocytosis of mCherry+ cardiomyocytes by heart macrophages, 7 days post-MI. In kind it is in vivo, mouse. The note with it: treatment for 7 days post-MI. From the text:
All mouse studies were approved by the Animal Research Ethics Committee of Lund University. C57BL/6NRJ mice were purchased from Janvier Labs, C57BL/6-Tg(Nr4a1-EGFP/cre)820Khog/J (Nur77-EGFP) and B6;D2-Tg(Myh6*-mCherry)2Mik/J (α-MHC-mCherry) were purchased from the Jackson Laboratory. Nur77-EGFP mice express the fluorescent EGFP protein under the Nur77 promoter. α-MHC-mCherry mice express the red fluorescent Cherry protein under the mouse alpha myosin heavy-chain promoter in cardiomyocytes. We used 8-12 weeks old female mice in all experiments. MI was induced by left coronary artery ligation using a minimal thoracotomy model. Mice were initially anesthetized with 4% isoflurane and the surgical procedure was performed under 1.7% isoflurane. Following heart exposure outside of the thorax through a small thoracic incision, the left coronary artery was permanently ligated using silk 6.0 suture, the heart repositioned, and the thorax was closed with 6.0 prolene monofilament suture.
In an attempt to explain these intriguing results, we assessed the effects of the extended treatment on the presence of myeloid cells in blood, spleen, bone marrow and myocardium, with particular emphasis on cellular populations involved in myocardial repair. The cellular infiltration was analysed by flow cytometry on day 7, at the peak of the reparatory post-MI period. […]

The test system of assay [2] is C57BL/6 mice with induced MI. Nature of the assay: Flow cytometry of myeloid cells and reparatory macrophages on day 7 post-MI. The conditions noted are these: for Intra-myocardial counts of reparatory macrophages vs PBS-treated MI controls: hearts collected 7 days post-MI. The class given is in vivo, mouse. The method, then: Immune cells from blood, spleen, heart and bone-marrow were collected at 2 or 7 days post-MI, and analysed by flow-cytometry. Mice were anesthetized by intraperitoneal injection of a mixture of xylazine (10 mg/kg) and ketamine (100 mg/kg). After 10 minutes, blood was collected by cardiac punction. Thereafter, the spleen was removed and the heart was perfused with 5 ml ice-cold PBS. Perfused hearts were excised and collected into tubes with PBS and kept on ice. Femurs and tibias from each mouse were used to obtain whole bone marrow for analysis. Blood was stained with fluorochrome-labelled antibodies against mouse monocyte and neutrophil markers diluted in MACS buffer (PBS, 10% FCS and 0.5% BSA), followed by treatment with erythrocyte lysis buffer, washing and analysis. Spleens were mashed trough a cell strainer in ice-cold PBS. Hearts were cut into small pieces and placed into tubes containing 2.5 ml digestion cocktail (Collagenase I, 450 U/ml; Collagenase XI, 125 U/ml; DNAase I, 60 U/ml; Hyaluronidase type 1-5, 60 U/ml diluted in PBS containing Ca and Mg) incubated for 1 h at 37° C. with shaking at 220 rpm. Bone marrow was flushed from femur and tibia using ice-cold PBS. Cell suspensions from spleen, heart and bone marrow were filtered through a 40 um cell strainer (BD), treated with erythrocyte lysis buffer, washed and stained. For intracellular staining, cells were fixed, permeabilized and stained. Cell populations were analyzed by flow cytometry in a Gallios Flow Cytometer (Backman Coulter), and the results were analyzed using FlowJo (FlowJo®, LLC; Tree Star). The following anti-mouse antibodies were used for the flow cytometric analysis: anti-CD45 (30-F11), anti-CD11b (M1/70), anti-Ly6C (HK1.4), anti-CD115 (AFS98), anti-Ly6G (1A8), anti-F4/80 (BM8), anti-CCR2 (475301), anti-Ter119 (TER119), anti-Gr1 (RB6-8C5), anti-CD45R/B220 (RA3-6B2), anti-CD3ξ (145-2C11), anti-NK1.1 (PK136), anti-Ly6A/E (Sca-1) (E13-1617), anti-CD117 (c-kit) (2B8), anti-CD48 (HM48.1), anti-CD150/SLAM (TC15-12F12.2), anti-CD16/32 (93), anti-CD34 (MEC14.7) (all from BioLegend, San Diego, Calif., USA); anti-MerTK (DSSMMER) and anti-Nur77 (12.14) (eBioscience).
MI induction and other procedures were carried out as outlined in Example 2. For long-term experiments of up to 21 days, a daily dose of 30 mg/Kg ABR-238901 was diluted in PBS and administered by daily i.p. injections for the first 3 days post-MI until the mice recovered and started to drink normally, and thereafter p.o. ad-libitum in meglumine buffer (FIG. 4A). Adequate treatment dosage was ensured by closely monitoring daily fluid intake.
In an attempt to explain these intriguing results, we assessed the effects of the extended treatment on the presence of myeloid cells in blood, spleen, bone marrow and myocardium, with particular emphasis on cellular populations involved in myocardial repair. The cellular infiltration was analysed by flow cytometry on day 7, at the peak of the reparatory post-MI period. […] Reparatory macrophages in the ischemic myocardium have previously been defined as CD11b^+F4/80^+Ly6C^lo cells. […] In order to investigate the possible mechanisms leading to impaired cardiac function in mice receiving long-term S100A9 blockade, we examined the presence and function of Ly6C^loMerTK^hi macrophages in the myocardium at 7 days post-MI. We found an approximately 50% reduction of the number of reparatory macrophages in hearts of mice receiving ABR-238901 compared to controls (FIG. 40). […] In order to test the functional importance of these findings, we used α-MHC-mCherry mice expressing cardiac-specific red fluorescent Cherry protein under the mouse a-myosin heavy-chain promoter.
Reparatory macrophage numbers were analysed in hearts collected at 7 days post-MI from mice with induced MI treated with ABR-238901 for 3 or 7 days.

Assay [3] relates to Nur77 response elements NBRE and NurRE in RAW264.7 macrophages. The assay is described as follows: Nur77 activity luciferase reporter assay in RAW264.7 macrophages stimulated with S100A9. The class given is cell-based, mouse. The note with it: S100A9 20 μg/mL, ABR-238901 100 μM, 16 hours. The method, then:
Low-passage RAW264.7 mouse macrophages (ATCC #TIB-71) were seeded at 125.000 cells/mL in DMEM medium containing 2 mM L-glutamine (Gibco), 10% Fetal Calf Serum (Gibco), and 1% penicillin/streptomycin (Invitrogen). The next day, cells were transfected with pXP1-NurRE-fluc or pGL2-4xNBRE-fluc firefly luciferase Nur77 reporter constructs using Lipofectamine LTX with PLUS reagent (Invitrogen) according to manufacturer's instructions. pRluc-N3, which constitutively expresses Renilla luciferase from the CMV promoter, was co-transfected as an internal control to verify transfection efficiency. Extracellular S100A9 (20 μg/mL) was incubated in the presence of 10 μM ZnCl2 (Sigma) for 15 minutes with or without 100 μM of ABR-238901, and added to the cells 4 hours after transfection. After 16 hours of stimulation, the cells were washed and firefly and Renilla luciferase activities were determined using the Dual-Luciferase Reporter Assay System and a GloMax luminescent plate reader (both Promega).
For orientation: A reporter such as luciferase makes a cellular process visible.

Where [4] appears, read: treatment for 7 days, 7 days post-MI.

As for `COc1ncc(S(=O)(=O)Nc2cncc(Cl)c2O)cc1Br` [ABR-238901, 5-bromo-N-(5-chloro-4-hydroxypyridin-3-yl)-6-methoxypyridine-3-sulfonamide], in assay [1], the “Reduction of the number of macrophages having phagocytosed mCherry+ cardiomyocytes” value is reported as “approximately 50%”; the “mCherry mean fluorescent intensity (MFI) in MerTKhi and MerTKlo macrophages” value is recorded as “did not affect”. For the same molecule, the “Intra-myocardial counts of reparatory macrophages vs PBS-treated MI controls” value in assay [2] (3 days treatment) was “on par with”. Further, the “Intra-myocardial counts of reparatory macrophages vs PBS-treated MI controls” value in assay [2] (continuous treatment for 7 days) is on record as “significantly lower”. For the same molecule, in assay [2] (setting [4]), the “Percentage of reparatory Ly6CloMerTKhi out of total CD11b+F4/80+ macrophages” value was “significantly decreased” and the “Reduction of the number of reparatory Ly6CloMerTKhi macrophages in hearts vs controls” value is listed as “approximately 50%”. For the same molecule, in assay [2] (treatment for 7 days, day 7), the “Cell counts in the bone marrow” value is on record as “no differences”, the “Monocytes in the spleen vs MI controls” value is listed as “accumulation”, the “Numbers of circulating monocytes” value is given as “significantly lower” and the “Numbers of circulating neutrophils” value was “significantly lower”. Moreover, in assay [2] (treatment for 7 days, day 7), the “Numbers of neutrophils in the spleen” value is listed as “not significantly affected”, the “Presence of monocytes in the heart” value is recorded as “potently reduced” and the “Presence of total CD11b+F4/80+ macrophages in the heart” value is “potently reduced”. Moreover, in assay [3], the “S100A9-induced increase of Nur77 activity (NBRE and NurRE luciferase reporters)” value was “inhibited”.
